Read-outs that look alike come from different tables or passages of the source.
Experiments:
[1] = target: hROMK (hKir1.1) (Homo sapiens (Human), UniProt P48048); experiment: Thallium Flux Assay (ROMK channel functional thallium flux, FLIPR-Tetra); format: cell-based; settings: HEK293 cells stably expressing hROMK (hKir1.1); 30 min compound incubation
From the text: (§1) Several assays may be used to measure functional inhibition of the ROMK channel by compounds of the instant invention. One assay that can be used is an electrophysiology assay that measures the electrical current that is generated as potassium permeates through the channel. Another ROMK functional assay makes use of the ability of thallium to permeate through open ROMK channels and increase the fluorescence of a dye previously loaded into the cells. Under control conditions, cells loaded with dye and exposed to thallium-containing medium display a time-dependent increase in fluorescence, the rate of which depends on number of functional channels. When cells are incubated in the presence of a channel inhibitor, the increase in fluorescence is attenuated in a concentration-dependent manner, and IC50 values of inhibition by compounds can be accurately determined. This assay has been established with cell lines expressing either human, or rat ROMK channels, and operates in 384-well format.
HEK293 cells stably expressing hROMK (hKir1.1) were grown at 37° C. in a 10% CO2 humidified incubator in complete growth media: Dulbecco's Modified Eagle Medium supplemented with non-essential amino acids, Penicillin/Streptomycin/Glutamine, G418 and FBS. At >80% confluency, the media was aspirated from the flask and the sample was rinsed with 10 ml Calcium/Magnesium-free PBS. […] To dislodge the cell, the side of the flask was gently banged with a hand. The cells were triturated completely and then transferred to 25 ml complete media. The sample was then centrifuged at 1,500 rpm for 6 minutes, followed by resuspension in complete growth media and then cell concentration was determined. […] Under ideal growth conditions and appropriate tissue culture practices, this cell line is stable for 40-45 passages.
• FluxOR™ Reagent (Component A) • FluxOR™ Assay Buffer (Component B)—10× Concentrate • PowerLoad™ Concentrate (Component C)—100× Concentrate • Probenecid (Component D) Lyophilized sample is kept at −20° C. Water soluble, 100× after solubilization in 1 ml water. […] Store at 4° C. • Thallium sulfate (Tl2SO4) Concentrate (Component G)—50 mM in water. […] Can be stored at room temperature • Stimulant Buffer (prepared at 5× final concentration in 1× FluxOR™Chloride-Free Buffer): 7.5 mM Thallium sulfate and 0.75 mM Potassium sulfate (to give a final assay concentration of 3 mM Thallium 0.3 mM Potassium). Store at 4° C. when not in use. If kept sterile, this solution is good for months. Assay Protocol—
The ROMK channel functional thallium flux assay is performed in 384 wells, using the FLIPR-Tetra instrument. HEK-hKir1.1 cells are seeded in Poly-D-Lysine microplates and kept in a 37° C.-10% CO2 incubator overnight. On the day of the experiment, the growth media is replaced with the FluxOR™ reagent loading buffer and incubated, protected from light, at ambient temperature (23-25° C.) for 90 min. The loading buffer is replaced with assay buffer±test compound followed by 30 min incubation at ambient temperature, where the Thallium/Potassium stimulant is added to the microplate.
• 1. Seed HEK-hKir1.1 cells (50 μl at 20,000 cells/well) in 384-well PDL coated Microplates • 2. Allow cells to adhere overnight in humidified 37° C./10% CO2 incubator • 3. Completely remove cell growth media from microplate and replace with 25 μl loading buffer • 4. Incubate Microplate at room temperature, protected form light, for 90 min • 5. Remove loading buffer and replace with 25 μl 1× Assay Buffer±test compound. • 6. Incubate microplate at room temperature, protected form light, for 30 min • 7. […] Excitation=400 nm, Emission=460 & 580 nm. Collect data for 10 min. Data Calculation—
The fluorescence intensity of wells containing 3 μM of a standard control ROMK inhibitor of the present invention is used to define the ROMK-sensitive component of thallium flux. Fluorescence in the presence of test compounds is normalized to control values to provide % fluorescence change.

[2] = target: Kir1.1 (ROMK1) (Homo sapiens (Human), UniProt P48048); experiment: Electrophysiology Assay (whole cell voltage clamp, IonWorks Quattro); format: cell-based
From the text: as §1
Chinese hamster ovary cells stably expressing Kir1.1 channels were maintained in T-75 flasks in cell culture media in a humidified 10% CO2 incubator at 37° C. Prior to an experiment, Kir1.1 expression was induced by overnight incubation with 1 mM sodium butyrate. […] After centrifugation, the cell pellet was resuspended in approximately 4.0 ml of bath solution and placed in the IonWorks® instrument. The intracellular solution consisted of (in mM): 80 K gluconate, 40 KCl, 20 KF, 3.2 MgCl2, 3 EGTA, 5 Hepes, pH 7.4. Electrical access to the cytoplasm was achieved by perforation in 0.13 mg/ml amphotericin B for 4 minutes.
Voltage protocols and current recordings were performed using the IonWorks® HT software/hardware system. Currents were sampled at 1 kHz. No correction for liquid junction potentials was used. The test pulse, consisting of a 100 ms step to 0 mV from a holding potential of −70 mV, followed by a 100 ms voltage ramp from −70 mV to +70 mV, was applied before and after a 6 minutes compound incubation period. Test compounds were prepared by diluting DMSO stock solutions into the bath solution at 3× the final concentration and placed in the instrument in 96-well polypropylene plates. Current amplitudes were measured using the IonWorks® software.

[3] = Chinese hamster ovary cells stably expressing Kir1.1, block during voltage step to 0 mV, 6 minutes compound incubation, read-out: EP Assay IC50

Chain of Kir1.1 (ROMK1) (P48048 whole entry, species assumed): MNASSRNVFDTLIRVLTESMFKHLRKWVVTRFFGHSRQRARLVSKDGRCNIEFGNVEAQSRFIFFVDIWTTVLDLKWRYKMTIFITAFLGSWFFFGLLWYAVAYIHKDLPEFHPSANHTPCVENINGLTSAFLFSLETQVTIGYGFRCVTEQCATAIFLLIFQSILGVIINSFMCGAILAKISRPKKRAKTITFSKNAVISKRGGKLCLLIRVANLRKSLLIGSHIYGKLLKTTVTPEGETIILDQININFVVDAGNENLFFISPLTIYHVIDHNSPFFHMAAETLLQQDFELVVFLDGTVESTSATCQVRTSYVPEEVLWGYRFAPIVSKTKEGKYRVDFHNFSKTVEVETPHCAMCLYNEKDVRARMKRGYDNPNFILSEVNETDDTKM
Chain of hROMK (hKir1.1) (P48048 whole entry): as the sequence (P48048 whole entry, species assumed) above

Row | SMILES | IC50 [1] [nM] | IC50 [2] [nM] | IC50 [2, 3] [nM]
1 | Cc1c([C@@H](O)CNC2C[C@H]3C[C@@H]2N(C[C@H](O)c2ccc4c(c2C)COC4=O)C3)ccc2c1COC2=O (single isomer, unassigned) [Example 17B] | 581 |  | 
2 | Cc1c([C@@H](O)CNC2CCCN(c3ccc(C#N)cn3)C2)ccc2c1COC2=O (stereo partly drawn) [Example 20, 6-(3-((R)-2-Hydroxy-2-(4-methyl-1-oxo-1,3-dihydroisobenzofuran-5-yl)ethylamino)piperidin-1-yl)nicotinonitrile] | 265 | 52 | 
3 | Cc1c([C@@H](O)CN2CC[C@H](NCC(O)c3ccc(C#N)cn3)C2)ccc2c1COC2=O (stereo partly drawn) [Example 11, 6-(1-Hydroxy-2-((S)-1-((R)-2-hydroxy-2-(4-methyl-1-oxo-1,3-dihydroisobenzofuran-5-yl)ethyl)pyrrolidin-3-ylamino)ethyl)nicotinonitrile] | 648 |  | 
4 | Cc1c([C@@H](O)CN[C@@H]2CCN(CC(O)c3ccc(C#N)cn3)C2)ccc2c1COC2=O (stereo partly drawn) [Example 12, 6-(1-Hydroxy-2-((R)-3-((R)-2-hydroxy-2-(4-methyl-1-oxo-1,3-dihydroisobenzofuran-5-yl)ethylamino)pyrrolidin-1-yl)ethyl)nicotinonitrile] | 542 |  | 1370
5 | Cc1c([C@@H](O)CNCC2(C)CCN(C[C@H](O)c3ccc4c(c3C)COC4=O)C2)ccc2c1COC2=O (stereo partly drawn) [Example 7, 5-{(1R)-1-Hydroxy-2-[3-({[(2R)-2-hydroxy-2-(4-methyl-1-oxo-1,3-dihydro-2-benzofuran-5-yl)ethyl]amino}methyl)-3-methylpyrrolidin-1-yl]ethyl}-4-methyl-2-benzofuran-1(3H)-one] | 277 |  | 
6 | Cc1c([C@@H](O)CN2CC[C@@H](NCC(O)c3ccc(C#N)cn3)C2)ccc2c1COC2=O (stereo partly drawn) [Example 10, 6-(1-Hydroxy-2-((R)-1-((R)-2-hydroxy-2-(4-methyl-1-oxo-1,3-dihydroisobenzofuran-5-yl)ethyl)pyrrolidin-3-ylamino)ethyl)nicotinonitrile] | 504 |  | 2060
7 | Cc1c([C@@H](O)CNCC2CCCN2C[C@H](O)c2ccc3c(c2C)COC3=O)ccc2c1COC2=O (stereo partly drawn) [Example 3, 5-{(1R)-1-Hydroxy-2-[2-({[(2R)-2-hydroxy-2-(4-methyl-1-oxo-1,3-dihydro-2-benzofuran-5-yl)ethyl]amino}methyl)pyrrolidin-1-yl]ethyl}-4-methyl-2-benzofuran-1(3H)-one] | 176 |  | 510
8 | Cc1c([C@@H](O)CN2CCCCC2CNCC(O)c2ccc(C#N)cn2)ccc2c1COC2=O (stereo partly drawn) [Example 13, 6-{1-Hydroxy-2-[({1-[(2R)-2-hydroxy-2-(4-methyl-1-oxo-1,3-dihydro-2-benzofuran-5-yl)ethyl]piperidin-2-yl}methyl)amino]ethyl}pyridine-3-carbonitrile] | 162 |  | 269
9 | Cc1c([C@@H](O)CNCC2CCCCN2C[C@H](O)c2ccc3c(c2C)COC3=O)ccc2c1COC2=O (stereo partly drawn) [Example 5, 5-{(1R)-1-Hydroxy-2-[2-({[(2R)-2-hydroxy-2-(4-methyl-1-oxo-1,3-dihydro-2-benzofuran-5-yl)ethyl]amino}methyl)piperidin-1-yl]ethyl}-4-methyl-2-benzofuran-1(3H)-one] | 82 |  | 
10 | Cc1c([C@@H](O)CN2CC(CNS(=O)(=O)Cc3ccc(C#N)cc3)C2)ccc2c1COC2=O [Example 16, (R)-1-(4-Cyanophenyl)-N-((1-(2-hydroxy-2-(4-methyl-1-oxo-1,3-dihydroisobenzofuran-5-yl)ethyl)azetidin-3-yl)methyl)methanesulfonamide] | 1040 |  | 
11 | Cc1c(C(CO)NCC2CCCN2C[C@H](O)c2ccc3c(c2C)COC3=O)ccc2c1COC2=O (stereo partly drawn) [Example 4, 5-{(1R)-1-Hydroxy-2-[2-({[2-hydroxy-1-(4-methyl-1-oxo-1,3-dihydro-2-benzofuran-5-yl)ethyl]amino}methyl)pyrrolidin-1-yl]ethyl}-4-methyl-2-benzofuran-1(3H)-one] | 523 |  | 278
12 | Cc1c([C@@H](O)CN2CC[C@@H](NS(=O)(=O)c3ccc(C#N)cc3)C2)ccc2c1COC2=O [Example 15, 4-Cyano-N—((R)-1-((R)-2-hydroxy-2-(4-methyl-1-oxo-1,3-dihydroisobenzofuran-5-yl)ethyl)pyrrolidin-3-yl)benzenesulfonamide] | 639 |  | 1390
13 | Cc1c([C@@H](O)CN2CCCC2CNCC(O)c2ccc(C#N)cn2)ccc2c1COC2=O (single isomer, unassigned) [Example 9A] | 188 |  | 321
14 | Cc1c([C@@H](O)CN2CCCC2CNc2ccc(C#N)cn2)ccc2c1COC2=O (some centres unmarked) [Example 18] | 534 |  | 65
15 | Cc1c([C@@H](O)CN2CCCC2CNCC(O)c2ccc(C#N)cn2)ccc2c1COC2=O (single isomer, unassigned) [Example 9B] | 290 |  | 254
16 | Cc1c([C@@H](O)CN2CCC(C)(CNc3ccc(C#N)cn3)C2)ccc2c1COC2=O (stereo partly drawn) [Example 21, 6-((1-((R)-2-Hydroxy-2-(4-methyl-1-oxo-1,3-dihydroisobenzofuran-5-yl)ethyl)-3-methylpyrrolidin-3-yl)methylamino)nicotinonitrile] | 547 |  | 103
17 | Cc1c(C(CO)NCC2CCCCN2C[C@H](O)c2ccc3c(c2C)COC3=O)ccc2c1COC2=O (stereo partly drawn) [Example 6, 5-{(1R)-1-Hydroxy-2-[2-({[2-hydroxy-1-(4-methyl-1-oxo-1,3-dihydro-2-benzofuran-5-yl)ethyl]amino}methyl)piperidin-1-yl]ethyl}-4-methyl-2-benzofuran-1(3H)-one] | 143 |  | 446
18 | Cc1c([C@@H](O)CN2CCC(CNc3nccn4cnnc34)(c3ccccc3)C2)ccc2c1COC2=O (stereo partly drawn) [Example 24, 5-((1R)-2-(3-(([1,2,4]Triazolo[4,3-a]pyrazin-8-ylamino)methyl)-3-phenylpyrrolidin-1-yl)-1-hydroxyethyl)-4-methylisobenzofuran-1(3H)-one] | 893 |  | 
19 | Cc1c([C@@H](O)CN2CCC(C3(Nc4nccn5cnnc45)CCC3)C2)ccc2c1COC2=O (stereo partly drawn) [Example 23, 5-((1R)-2-(3-(1-([1,2,4]Triazolo[4,3-a]pyrazin-8-ylamino)cyclobutyl)pyrrolidin-1-yl)-1-hydroxyethyl)-4-methylisobenzofuran-1(3H)-one] | 401 |  | 
20 | Cc1c([C@@H](O)CNCC2(C)CCCN(C[C@H](O)c3ccc4c(c3C)COC4=O)C2)ccc2c1COC2=O (stereo partly drawn) [Example 8, 5-{(1R)-1-Hydroxy-2-[3-({[(2R)-2-hydroxy-2-(4-methyl-1-oxo-1,3-dihydro-2-benzofuran-5-yl)ethyl]amino}methyl)-3-methylpiperidin-1-yl]ethyl}-4-methyl-2-benzofuran-1(3H)-one] | 847 |  | 

From patent US9108947B2, “Inhibitors of the Renal Outer Medullary Potassium channel” (Merck Sharp & Dohme Corp., priority 2011, dated 2015)
